Activity and IC50 data for three compounds are collected here from ChEMBL document CHEMBL3804773, “Straightforward synthesis of a novel ring-fused pyrazole-lactam and in vitro cytotoxic activity on cancer cell lines” (Eur J Med Chem, 2016).

In general, pIC50 refers to −log10 of the IC50, conventionally taken in molar units.

pIC50: −log10 of the molar value.

The subject of experiment [1] is U-87MG ATCC. Description: (§1) Cytotoxicity against human U87MG cells assessed as reduction in cell viability after 24 hrs by Z2 coulter counter method. Type of experiment: functional, cell-based. The conditions noted are these: TDE = time-dependent effect.
Experiment [2] in a line: (§2) Cytotoxicity against human U87MG cells assessed as reduction in cell viability after 72 hrs by Z2 coulter counter method. Type of experiment: functional, cell-based, U-87MG ATCC. Conditions: U-87 MG.
Experiment [3] deals with U-87MG ATCC. The experiment is described as §2. Conditions: TDE = time-dependent effect. The format is functional, cell-based.
Experiment [4] deals with U-87MG ATCC. Put plainly: Cytotoxicity against human U87MG cells assessed as reduction in cell viability by Z2 coulter counter method. Type of experiment: functional, cell-based. Conditions: TDE = time-dependent effect.
Experiment [5] is described as follows: (§3) Cytotoxicity against human U87MG cells assessed as reduction in cell viability after 48 hrs by Z2 coulter counter method. The format is functional, cell-based, U-87MG ATCC. Conditions: U-87 MG.
Experiment [6] relates to U-87MG ATCC. The experiment is described as §3. Type of experiment: functional, cell-based. Conditions: TDE = time-dependent effect.
Experiment [7] can be described thus: as §1. The format is functional, cell-based, U-87MG ATCC. The conditions noted are these: U-87 MG.
The nature of experiment [8]: Cytotoxicity against human HN13 cells assessed as reduction in cell viability after 24 hrs by Z2 coulter counter method. The format is functional, cell-based. The conditions noted are these: WSU-HN13, 24 h.
Experiment [9] relates to MDA-MB-231. Put plainly: Cytotoxicity against human MDA-MB-231 cells assessed as reduction in cell viability after 48 hrs by Z2 coulter counter method. The format is functional, cell-based. Conditions: MDA-MB-231, 48 h.
Experiment [10] concerns MCF7. Put plainly: Cytotoxicity against human MCF7 cells assessed as reduction in cell viability after 72 hrs by Z2 coulter counter method. Conditions: MCF7, 72 h. Type of experiment: functional, cell-based.
The subject of experiment [11] is HeLa. Description: Cytotoxicity against human HeLa cells assessed as reduction in cell viability after 48 hrs by Z2 coulter counter method. The format is functional, cell-based.
In experiment [12] the test system is MCF7. Put plainly: Cytotoxicity against human MCF7 cells assessed as reduction in cell viability after 48 hrs by Z2 coulter counter method. Type of experiment: functional, cell-based. Conditions: MCF7, 48 h.
Experiment [13] deals with MDA-MB-231. Description: Cytotoxicity against human MDA-MB-231 cells assessed as reduction in cell viability after 24 hrs by Z2 coulter counter method. The format is functional, cell-based. Conditions: MDA-MB-231, 24 h.
The nature of experiment [14]: Cytotoxicity against human HN13 cells assessed as reduction in cell viability after 72 hrs by Z2 coulter counter method. The format is functional, cell-based. The conditions noted are these: WSU-HN13, 72 h.
The test system of experiment [15] is HeLa. Description: Cytotoxicity against human HeLa cells assessed as reduction in cell viability after 24 hrs by Z2 coulter counter method. Type of experiment: functional, cell-based.
The subject of experiment [16] is MDA-MB-231. Put plainly: Cytotoxicity against human MDA-MB-231 cells assessed as reduction in cell viability after 72 hrs by Z2 coulter counter method. The format is functional, cell-based. Conditions: MDA-MB-231, 72 h.
In experiment [17] the test system is MCF7. Put plainly: Cytotoxicity against human MCF7 cells assessed as reduction in cell viability after 24 hrs by Z2 coulter counter method. The format is functional, cell-based. Conditions: MCF7, 24 h.
The nature of experiment [18]: Cytotoxicity against human HN13 cells assessed as reduction in cell viability after 48 hrs by Z2 coulter counter method. Type of experiment: functional, cell-based. Conditions: WSU-HN13, 48 h.
The test system of experiment [19] is HeLa. Put plainly: Cytotoxicity against human HeLa cells assessed as reduction in cell viability after 72 hrs by Z2 coulter counter method. Type of experiment: functional, cell-based.

Take `O=c1[nH]cc(F)c(=O)[nH]1` [FLUOROURACIL]: the Activity entry in experiment [1], in [3], in experiment [4] and in experiment [6] was “tde” each time. Further, the values for the negative logarithm of the IC50 (pIC50) in experiment [2] and in [5] were 4.74 and 3.66, respectively.
Regarding `Cn1c(=O)n(-c2ccc(C(C)(C)C#N)cc2)c2c3cc(-c4cnc5ccccc5c4)ccc3ncc21` [DACTOLISIB], the values for the pIC50 in experiment [7], in [2] and in [5] were 3.08, 6.80 and 6.22, respectively. Also, the Activity result in experiment [1], in [3], in experiment [4] and in [6] was “tde” each time.
With `O=C(Nc1ccc(Nc2ccc(OC3CCNCC3)cc2)cc1)c1cccc(-n2nc(C(=O)Nc3ccc(Nc4ccc(OC5CCNCC5)cc4)cc3)c3c2C(=O)NCC3)c1`, the pIC50 in experiment [7] was 4.22; in experiment [8] it was 4.51; in experiment [9], 4.37; in experiment [2] it was 4.47; in experiment [10], 4.97; in [11] it was 4.75. Further, the pIC50 in experiment [12] is 4.48; in experiment [13] it was 4.26; in experiment [14] it was 4.58; in experiment [15] it was 4.75; in experiment [16], 4.54; in [5], 4.35. In addition, the pIC50 in experiment [17] was 4.11; in experiment [18] it was 4.57; in [19], 4.80.
